1 compound from patent publication US20090117563A1, “Identification of TRPML3 (MCOLN3) as a Salty Taste Receptor and Use in Assays for Identifying Taste (Salty) Modulators and/or Therapeutics that Modulate Sodium Transport, Absorption or Excretion and/or Aldosterone and/or Vasopressin Production or Release” (priority 2007, published 2009) can be followed below.

This assay concerns the target T1, A419P TRPML3 (Homo sapiens, UniProt Q8TDD5, A419P).
T1 construct: expressed in transfected cells
T1 sequence (Q8TDD5 1-553 A419P): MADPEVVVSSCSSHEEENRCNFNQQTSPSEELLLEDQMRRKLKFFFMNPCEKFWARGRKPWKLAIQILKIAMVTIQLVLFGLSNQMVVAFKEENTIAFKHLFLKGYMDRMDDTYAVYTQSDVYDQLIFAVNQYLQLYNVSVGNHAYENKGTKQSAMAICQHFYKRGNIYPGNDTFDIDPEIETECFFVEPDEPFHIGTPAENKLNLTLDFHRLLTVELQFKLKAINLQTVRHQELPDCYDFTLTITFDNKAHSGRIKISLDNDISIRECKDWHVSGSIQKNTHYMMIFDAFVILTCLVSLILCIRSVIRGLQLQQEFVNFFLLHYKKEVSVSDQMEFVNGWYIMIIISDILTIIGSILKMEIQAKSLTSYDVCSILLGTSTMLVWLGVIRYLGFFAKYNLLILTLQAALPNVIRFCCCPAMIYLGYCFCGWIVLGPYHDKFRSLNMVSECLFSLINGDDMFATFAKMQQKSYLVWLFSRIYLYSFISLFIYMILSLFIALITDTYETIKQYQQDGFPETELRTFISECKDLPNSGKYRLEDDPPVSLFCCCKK
The assay can be described thus: IonWorks PPC patch clamp, inducible CHO-K1 cell line expressing A419P TRPML3. Format: cell-based. The settings on record: 4 mM GdCl3 solution. An excerpt:
Different versions of human TRPML3 can be assayed, included but not limited to a wild-type version and a gain of function mutant version encoding an A419P substitution. TRPML3 can be expressed in CHO-K1 cells by one of three methods: (i) transient transfection (ii) BacMam transduction or (iii) a stable transfection and TRPML3 function measured using the perforated patch clamp technique on an IonWorks Quattro instrument (MDS Analytical Technologies). Cells are dissociated with Detachin cell detachment solution (Genlantis), centrifuged, and resuspended in external recording buffer (150 mM NaCl, 2 mM KCl, 1.5 mM CaCl2, 1 mM MgCl2, 10 mM HEPES pH 7.4 with NaOH). […]
The following description illustrates the IonWorks screening assay to identify compounds that modulate (activate or block) TRPML3 function. […] In each scan currents are measured as the voltage is modified (see example voltage command trace in FIG. 29).
Compounds will be applied at concentrations between ˜1 uM and 100 uM. […] Compounds that enhance TRPML3 by affecting the voltage dependent rectification will be preferentially detected at −40 mV where the rectification is strong while compounds that block TRPML3 will be preferentially detected at −120 mV where the TRPML3 currents are larger. To quantitate the effect of a compound on TRPML3 function, we use the following formula: [(A−Ao)/(B−Bo)]×100. […]
(In general: In patch-clamp work, channel activity is measured electrically.)

As for `[Cl][Gd]([Cl])[Cl]` [gadolinium, gadolinium chloride], the “effect on TRPML3 current (IonWorks scan)” value was “blocks TRPML3 current”.
